Tests used:
BMEC cells = assay: Endothelial BMEC cells chemotaxis (Boyden chamber); assay type: cell-based, bovine; details: 50 and 25 μM
Protocol: The capacity of ST1879 to inhibit cellular migration through the polycarbonate filter in the direction of the chemoattractant factor, was quantitatively evaluated by counting the number of cells present on the lower side of the filter. The percentages of migration reported in table 8 were calculated according to the formula: (treated−control/control)×100.

[1] = test system: HL60 acute promyelocytic leukaemia cell line; assay: Cytotoxicity test (sulphorodamine B), HL-60; assay type: cell-based; details: Homo sapiens, 24 h incubation, survival 48 h after removal
Excerpt: To carry out the cytotoxicity tests, two acute promyelocytic leukaemia (APL) cell lines were used. • 1. Cell line NB4, carrying the chromosomal translocation t(15; 17) which generates the fusion protein PML/RARα. This cell line is extremely sensitive to the differentiating action of pharmaceutical doses of ATRA (10^−7-10^−6 M); • 2. Cell line HL60, which responds to ATRA less sensitively with respect to cell line NB4.
These cell lines were maintained in RPMI 1640 containing 10% foetal calf serum (FCS) and 1% glutamine.
The cytotoxicity tests were carried out using NB4 or HL-60 cells in suspension (10000/well). The cells were seeded in a volume of 250 μl in 96 well plates and incubated for 24 hours at 37° C. The following day, test compound ST 1926 [(2E)-3-[3′-(1-Adamantyl)-4′-hydroxy[1,1′-biphenyl]-4-yl]-2-propenoate/ic acid] was added at increasing concentrations, and the cells were incubated for a further 24 hours at 37° C. in a humidified atmosphere containing 5% CO2. On the 3rd day, the medium was removed by centrifuging the plate at 1600×g for 10 min and the supernatant decanted. […] The optical density was measured using a Multiskan spectrophotometer at 540 nm.
(§1) Cell survival was determined by incubation with ST1926 for 24 hours, 48 hours after the removal of the compound. […]

[2] = test system: Human ovarian carcinoma IGROV-1; assay: Cytotoxicity test (sulphorodamine B), IGROV-1; assay type: cell-based; details: 24 h incubation, survival 48 h after removal
Excerpt: Different cell lines deriving from solid tumors were also used. • 1. Human prostate carcinoma PC3 and DU145. These cell lines were maintained in RPMI 1640 medium containing 10% FCS, 1% sodium pyruvate and 1% glutamine; • 2. Human colon adenocarcinoma LoVo. This cell line was maintained in HAM's F-12 medium, containing 10% FCS and 1% glutamine. • 3. Human ovarian carcinoma such as A2780 and A2780/Dx, sensitive and resistant to drugs, respectively (doxorubicin, taxol, etoposide, vincristine); IGROV-1 and IGROV-1/Pt, sensitive and resistant to platinum-based chemotherapy, respectively, were maintained in RPMI 1640 medium containing 10% FCS, 1% sodium pyruvate and 1% glutamine; • 4. Human melanoma MeWo and MeS 2.21, glioblastoma GBM, no small cell lung carcinomas A431, NCI—H460, osteosarcomas SAOS and U2OS were maintained in RPMI 1640 medium containing 10% FCS, 1% sodium pyruvate and 1% glutamine.
The cytotoxicity tests were carried out using NB4 or HL-60 cells in suspension (10000/well). The cells were seeded in a volume of 250 μl in 96 well plates and incubated for 24 hours at 37° C. […] The optical density was measured using a Multiskan spectrophotometer at 540 nm. […]
as §1

[3] = test system: F9 embryonic teratocarcinoma cells; details: cited from earlier work
[4] = test system: human prostate carcinoma PC3 cells; assay: Cyto-fluorometric cell cycle analysis, PC3; assay type: cell-based; set-up: key to APOPTOSIS: % of cells (cell cycle phase percentages)
Protocol: To evaluate the effect of the compound according to the invention, on various phases of the cell cycle, cyto-fluorometric cell cycle analyses were performed.
On the third day of treatment 500.000 cells were sampled, centrifuged at 180×g for 5 minutes, washed twice in calcium and magnesium free PBS. The cells (1×10^6/ml of fixative) were fixed for at least 1 hour in a fixation mixture comprised of acetone/methanol 1:4 v/v maintained at −20° C. and 50% of calcium and magnesium free PBS; then the cells were centrifuged, washed in calcium and magnesium free PBS, and again centrifuged and washed. The cellular precipitate was incubated for 30 minutes in the dark at room temperature with 200 μl of […] (100 μg/ml) and 200 μl of RNAse (150 KU/mg).
The samples with filtered through nylon filters (60-80 μm diameter) and analysed by cyto-fluorimeter FACScan (Becton Dickinson), acquiring 20000 events/sample, at an excitation wavelength of 488 nm and emission wavelength of 620 nm. The analysis of the percentages of the cell cycle phases was performed using a dedicated software package, Modfit v. 2.0 (Becton Dickinson).
For the cell cycle analysis of prostate carcinoma cells PC3, the cells were seeded in plates at a density of 500000 cells/ml in RPMI medium. After treatment with compound ST1926 for 24 hours, cells were analysed as described above.

[5] = PC3, 0.02 μM, 24 hours of treatment and 0 hours of recovery
[6] = PC3, 0.02 μM, 24 hours of treatment and 24 hours of recovery
[7] = PC3, 0.05 μM, 24 hours of treatment and 0 hours of recovery
[8] = PC3, 0.05 μM, 24 hours of treatment and 24 hours of recovery
[9] = PC3, 0.1 μM, 24 hours of treatment and 0 hours of recovery
[10] = PC3, 0.1 μM, 24 hours of treatment and 24 hours of recovery
[11] = PC3, 0.2 μM, 24 hours of treatment and 24 hours of recovery

O=C(O)/C=C/c1ccc(-c2ccc(O)c(C34CC5CC(CC(C5)C3)C4)c2)cc1 [ST1926, E-4-(3-(1-adamantyl)-4-hydroxyphenyl)cinnamic acid]
chemotaxis of the BMEC cells towards FCS (in words) (BMEC cells): inhibition of chemotaxis
IC50 [1]: 200 nM
IC50 [2]: 230 nM
activity in the F9 assay compared with compound 1 (in words) [3]: lower activities
APOPTOSIS [4, 5]: 9
G0/G1 [4, 5]: 54.0
G2 + M [4, 5]: 21.8
S [4, 5]: 24.2
APOPTOSIS [4, 6]: 13
G0/G1 [4, 6]: 44.6
G2 + M [4, 6]: 25.0
S [4, 6]: 30.4
APOPTOSIS [4, 7]: 11
G0/G1 [4, 7]: 55.8
G2 + M [4, 7]: 20.6
S [4, 7]: 23.6
APOPTOSIS [4, 8]: 15
G0/G1 [4, 8]: 44.9
G2 + M [4, 8]: 25.6
S [4, 8]: 29.5
APOPTOSIS [4, 9]: 10
G0/G1 [4, 9]: 52.0
G2 + M [4, 9]: 28.0
S [4, 9]: 35.4
APOPTOSIS [4, 10]: 10
G0/G1 [4, 10]: 45.8
G2 + M [4, 10]: 28.4
S [4, 10]: 25.8
APOPTOSIS ([4]; PC3, 0.2 μM, 24 hours of treatment and 0 hours of recovery): 13.5
APOPTOSIS [4, 11]: 13
G0/G1 [4, 11]: 31.8
G2 + M [4, 11]: 25.0
S [4, 11]: 43.2
effect on PC3 cells at the end of treatment (in words) ([4]; PC3, 0.4 μM, 24 hours of treatment): induced apoptosis
APOPTOSIS ([4]; PC3, 0.4 μM, 24 hours of treatment and 0 hours of recovery): 25
APOPTOSIS ([4]; PC3, 0.4 μM, 24 hours of treatment and 24 hours of recovery): 26

From patent publication US7449495B2, “Retinoid derivatives with antiangiogenic, antitumoral and proapoptotic activities” (Sigma-Tau Industrie Farmaceutiche Riunite S.p.A., priority 2001, dated 2008)
